In brackets after ≈: the same amount, converted by molar mass. Activity calls are given as the source filed them. The calls are words filed in the database; no cut-off is given here.
Assays:
[1] = system: Acinetobacter baumannii; assay: Antibacterial activity against oxacillinase-27 producing Acinetobacter baumannii NCTC 13304 assessed as inhibition of bacterial growth incubated for 18 to 24 hrs by broth microdilution method; assay type: functional; conditions: time 18-24 hrs
[2] = system: Escherichia coli; assay: Bactericidal activity against Escherichia coli ATCC BAA-2523 assessed as reduction in bacterial count at 4 times MIC measured after 2 hrs by time-kill assay; assay type: functional, organism-based
[3] = system: Acinetobacter baumannii; assay: Antibacterial activity against carbapenem resistant Acinetobacter baumannii clinical isolate 19-8 assessed as inhibition of bacterial growth incubated for 18 to 24 hrs by broth microdilution method; assay type: functional; conditions: time 18-24 hrs
[4] = system: Staphylococcus epidermidis; assay: Antibacterial activity against methicillin resistant Staphylococcus epidermidis clinical isolate 19-6 assessed as inhibition of bacterial growth incubated for 18 to 24 hrs by broth microdilution method; assay type: functional; conditions: time 18-24 hrs
[5] = system: Pseudomonas aeruginosa; assay: Antibacterial activity against carbapenem resistant Pseudomonas aeruginosa clinical isolate 17-1 assessed as inhibition of bacterial growth incubated for 18 to 24 hrs by broth microdilution method; assay type: functional; conditions: time 18-24 hrs
[6] = Half life in overnight fasted Sprague-Dawley rat at 4 mg/kg, ip measured for 24 hrs by LC-MS/MS analysis; assay type: ADME, organism-based; conditions: in vivo
[7] = system: Escherichia coli; assay: Potentiation of rifampicin induced antibacterial activity in Escherichia coli ATCC 25922 assessed as rifampicin MIC at 0.5 ug/ml incubated for 18 to 24 hrs by broth microdilution method (reference value: 2 ug/ml); assay type: functional; conditions: dose 0.5 µg/ml, time 18-24 hrs
[8] = system: Escherichia coli; assay: Antibacterial activity against Escherichia coli clinical isolate 19-2 assessed as inhibition of bacterial growth incubated for 18 to 24 hrs by broth microdilution method; assay type: functional; conditions: time 18-24 hrs
[9] = Acute toxicity in ICR mouse administered into tail vein and measured twice daily over 1 week; conditions: in vivo, route iv, time 1 weeks
[10] = system: Staphylococcus aureus; assay: Antibacterial activity against Staphylococcus aureus ATCC 29213 assessed as inhibition of bacterial growth incubated for 18 to 24 hrs by broth microdilution method; assay type: functional; conditions: time 18-24 hrs
[11] = system: Escherichia coli; assay: Potentiation of rifampicin induced antibacterial activity in Escherichia coli ATCC 25922 assessed as rifampicin MIC at 0.03 ug/ml incubated for 18 to 24 hrs by broth microdilution method (reference value: 2 ug/ml); assay type: functional; conditions: dose 0.03 µg/ml, time 18-24 hrs
[12] = system: Klebsiella pneumoniae; assay: Antibacterial activity against KPC producing Klebsiella pneumoniae ATCC BAA-1705 assessed as inhibition of bacterial growth incubated for 18 to 24 hrs by broth microdilution method; assay type: functional; conditions: time 18-24 hrs
[13] = Acute toxicity in ICR mouse assessed as adverse effects at 8.19 mg/kg, iv administered into tail vein and measured twice daily over 1 week; assay type: organism-based; conditions: in vivo, 168 h, time 1 weeks
[14] = system: Escherichia coli; assay: Potentiation of rifampicin induced antibacterial activity in Escherichia coli ATCC 25922 assessed as rifampicin MIC at 0.125 ug/ml incubated for 18 to 24 hrs by broth microdilution method (reference value: 2 ug/ml); assay type: functional; conditions: dose 0.125 µg/ml, time 18-24 hrs

## CCCCCCC[C@@H](O)CC(=O)N[C@H](CCN)C(=O)N[C@H]1CCNC(=O)[C@H]([C@@H](C)O)NC(=O)[C@H](CCN)NC(=O)[C@H](CCN)NC(=O)[C@H]([C@@H](C)O)NC(=O)[C@@H](Cc2ccccc2)NC(=O)[C@H](CCN)NC1=O
[1]
  MIC: 8 µg/mL (≈ 7.84 µM)
[2]
  Activity: Active
[3]
  MIC: 32 µg/mL (≈ 31.4 µM)
[4]
  MIC: > 64 µg/mL
[5]
  MIC: 0.5 µg/mL (≈ 0.49 µM)
[6]
  half-life: 222 min
[7]
  MIC: ≤ 0.06 µg/mL
[8]
  MIC: 1 µg/mL (≈ 0.98 µM)
[9]
  LD50 at 168 h: 12.4 mg/kg
[10]
  MIC: > 64 µg/mL
[11]
  MIC: ≤ 0.06 µg/mL
[12]
  MIC: 1 µg/mL (≈ 0.98 µM)
[13]
  Activity: Non-Toxic
[14]
  MIC: ≤ 0.06 µg/mL

— ChEMBL document CHEMBL5380795, “Design, Synthesis, and Bioactivity Investigation of Cyclic Lipopeptide Antibiotics Containing Eight to Nine Amino Acids” (J Med Chem, 2023)
